Measurements published in ChEMBL document CHEMBL3352235, “Design, synthesis and biological evaluation of 17-arylmethylamine-17-demethoxygeldanamycin derivatives as potent Hsp90 inhibitors” (Eur J Med Chem, 2014).
pIC50: −log10 of the molar value.

Experiments:
[1] = tested on: LNCaP; assay: cells; conditions: Homo sapiens, 72 h
Description: Cytotoxicity against human LNCAP cells after 72 hrs by MTT assay

[2] = tested on: MDA-MB-231; assay: cells; conditions: Homo sapiens, MDA-MB-231, 72 h
Description: Cytotoxicity against human MDA-MB-231 cells after 72 hrs by MTT assay

[3] = tested on: Mus musculus; assay: Hepatotoxicity in Kunming mouse assessed as serum AST level at 10 mg/kg, iv (reference value: 197.2 +/- 11.2 U/L); type: toxicity, organism-based; design: dose 10 mg/kg, route intravenous; conditions: in vivo
[4] = tested on: MDA-MB-231; assay: Antitumor activity against human MDA-MB-231 cells xenografted in BALB/c mouse assessed as reduction in tumor weight at 10 mg/kg, iv dosed every 3 days for 15 days; type: functional; conditions: read-out: GI
[5] = target: Heat shock protein HSP 90-alpha (Homo sapiens, UniProt P07900); assay: Displacement of GA-FITC from human recombinant HSP90alpha ATP-binding site by fluorescence polarization assay
[6] = tested on: Mus musculus; assay: Hepatotoxicity in Kunming mouse assessed as serum ALT level at 10 mg/kg, iv (reference value: 60.7 +/- 6.9 U/L); type: toxicity, organism-based; design: dose 10 mg/kg, route intravenous; conditions: in vivo
[7] = tested on: MDA-MB-231; assay: Antitumor activity against human MDA-MB-231 cells xenografted in BALB/c mouse assessed as tumor volume at 10 mg/kg, iv dosed every 3 days for 15 days relative to untreated control; type: functional

Structure (SMILES)	pIC50 [1]	pIC50 [2]	Activity [3]	inhibition in vivo at 10 mg/kg [4]	pIC50 [5]	Activity [6]	T/C [7]
CO[C@H]1/C=C\C=C(/C)C(=O)NC2=CC(=O)C(NCc3cccc(N)c3)=C(C[C@@H](C)C[C@H](OC)[C@H](O)[C@@H](C)/C=C(\C)[C@@H]1OC(N)=O)C2=O	6.74	6.25					
CO[C@H]1/C=C\C=C(/C)C(=O)NC2=CC(=O)C(NCc3ccccc3C)=C(C[C@@H](C)C[C@H](OC)[C@H](O)[C@@H](C)/C=C(\C)[C@@H]1OC(N)=O)C2=O	5.24	5.78					
CO[C@H]1/C=C\C=C(/C)C(=O)NC2=CC(=O)C(NCc3ccc(Cl)nc3)=C(C[C@@H](C)C[C@H](OC)[C@H](O)[C@@H](C)/C=C(\C)[C@@H]1OC(N)=O)C2=O	6.29	7.10	173.6 U/L	50%	5.98	79.4 U/L	40%
COc1cc(CNC2=C3C[C@@H](C)C[C@H](OC)[C@H](O)[C@@H](C)/C=C(\C)[C@H](OC(N)=O)[C@@H](OC)/C=C\C=C(/C)C(=O)NC(=CC2=O)C3=O)ccc1O	6.85	6.80					
COc1cccc(CNC2=C3C[C@@H](C)C[C@H](OC)[C@H](O)[C@@H](C)/C=C(\C)[C@H](OC(N)=O)[C@@H](OC)/C=C\C=C(/C)C(=O)NC(=CC2=O)C3=O)c1	5.57	6.06					
CO[C@H]1/C=C\C=C(/C)C(=O)NC2=CC(=O)C(NCc3ccc(S(N)(=O)=O)cc3)=C(C[C@@H](C)C[C@H](OC)[C@H](O)[C@@H](C)/C=C(\C)[C@@H]1OC(N)=O)C2=O	6.02	5.97					
C=CCNC1=C2C[C@@H](C)C[C@H](OC)[C@H](O)[C@@H](C)/C=C(\C)[C@H](OC(N)=O)[C@@H](OC)/C=C\C=C(/C)C(=O)NC(=CC1=O)C2=O [TANESPIMYCIN]	6.80		237.4 U/L	57%		66.6 U/L	35%
COc1cc(CNC2=C3C[C@@H](C)C[C@H](OC)[C@H](O)[C@@H](C)/C=C(\C)[C@H](OC(N)=O)[C@@H](OC)/C=C\C=C(/C)C(=O)NC(=CC2=O)C3=O)cc(OC)c1OC	5.61	6.19					
CO[C@H]1/C=C\C=C(/C)C(=O)NC2=CC(=O)C(NCc3ccc(F)c(F)c3)=C(C[C@@H](C)C[C@H](OC)[C@H](O)[C@@H](C)/C=C(\C)[C@@H]1OC(N)=O)C2=O	< 5.00	6.20					
COc1ccccc1CNC1=C2C[C@@H](C)C[C@H](OC)[C@H](O)[C@@H](C)/C=C(\C)[C@H](OC(N)=O)[C@@H](OC)/C=C\C=C(/C)C(=O)NC(=CC1=O)C2=O	< 5.00	6.34					
CO[C@H]1/C=C\C=C(/C)C(=O)NC2=CC(=O)C(NCc3ccc(C(F)(F)F)nc3)=C(C[C@@H](C)C[C@H](OC)[C@H](O)[C@@H](C)/C=C(\C)[C@@H]1OC(N)=O)C2=O	6.46	7.00	164.1 U/L	63%	6.37	61 U/L	31%
CO[C@H]1/C=C\C=C(/C)C(=O)NC2=CC(=O)C(NCc3cncn3C)=C(C[C@@H](C)C[C@H](OC)[C@H](O)[C@@H](C)/C=C(\C)[C@@H]1OC(N)=O)C2=O	6.36	6.39					
CO[C@H]1/C=C\C=C(/C)C(=O)NC2=CC(=O)C(NCc3ccsc3)=C(C[C@@H](C)C[C@H](OC)[C@H](O)[C@@H](C)/C=C(\C)[C@@H]1OC(N)=O)C2=O	6.17	6.40					
COc1ccc(CNC2=C3C[C@@H](C)C[C@H](OC)[C@H](O)[C@@H](C)/C=C(\C)[C@H](OC(N)=O)[C@@H](OC)/C=C\C=C(/C)C(=O)NC(=CC2=O)C3=O)cc1OC	< 5.00	6.44					
CO[C@H]1/C=C\C=C(/C)C(=O)NC2=CC(=O)C(NCc3ccc(O)cc3)=C(C[C@@H](C)C[C@H](OC)[C@H](O)[C@@H](C)/C=C(\C)[C@@H]1OC(N)=O)C2=O	5.07	6.77					
COc1ccc(CNC2=C3C[C@@H](C)C[C@H](OC)[C@H](O)[C@@H](C)/C=C(\C)[C@H](OC(N)=O)[C@@H](OC)/C=C\C=C(/C)C(=O)NC(=CC2=O)C3=O)c(OC)c1	5.51	6.48					
CO[C@H]1/C=C\C=C(/C)C(=O)NC2=CC(=O)C(NCc3cc(F)cc(F)c3)=C(C[C@@H](C)C[C@H](OC)[C@H](O)[C@@H](C)/C=C(\C)[C@@H]1OC(N)=O)C2=O	5.70	6.46					
CO[C@H]1/C=C\C=C(/C)C(=O)NC2=CC(=O)C(NCc3ccc(I)cc3)=C(C[C@@H](C)C[C@H](OC)[C@H](O)[C@@H](C)/C=C(\C)[C@@H]1OC(N)=O)C2=O	5.87	6.44					

Structure (SMILES)	pIC50 [1]	pIC50 [2]	Activity [3]	inhibition in vivo at 10 mg/kg [4]	pIC50 [5]	Activity [6]	T/C [7]
CO[C@H]1/C=C\C=C(/C)C(=O)NC2=CC(=O)C(NCc3ccc(Cl)cc3)=C(C[C@@H](C)C[C@H](OC)[C@H](O)[C@@H](C)/C=C(\C)[C@@H]1OC(N)=O)C2=O	6.11	6.34					
CO[C@H]1/C=C\C=C(/C)C(=O)NC2=CC(=O)C(NCc3ccc(C)cc3)=C(C[C@@H](C)C[C@H](OC)[C@H](O)[C@@H](C)/C=C(\C)[C@@H]1OC(N)=O)C2=O	< 5.00	6.31					
CO[C@H]1/C=C\C=C(/C)C(=O)NC2=CC(=O)C(NCc3cccc(Cl)c3)=C(C[C@@H](C)C[C@H](OC)[C@H](O)[C@@H](C)/C=C(\C)[C@@H]1OC(N)=O)C2=O	5.07	6.42					
CO[C@H]1/C=C\C=C(/C)C(=O)NC2=CC(=O)C(NCc3cccc(C#N)c3)=C(C[C@@H](C)C[C@H](OC)[C@H](O)[C@@H](C)/C=C(\C)[C@@H]1OC(N)=O)C2=O	5.74	6.35					
CO[C@H]1/C=C\C=C(/C)C(=O)NC2=CC(=O)C(NCc3ccc(N)cc3)=C(C[C@@H](C)C[C@H](OC)[C@H](O)[C@@H](C)/C=C(\C)[C@@H]1OC(N)=O)C2=O	7.30	6.77	215.8 U/L	46%	6.05	74.9 U/L	55%
CO[C@H]1/C=C\C=C(/C)C(=O)NC2=CC(=O)C(NCc3ccc(F)cc3)=C(C[C@@H](C)C[C@H](OC)[C@H](O)[C@@H](C)/C=C(\C)[C@@H]1OC(N)=O)C2=O	5.64	6.20					
CO[C@H]1/C=C\C=C(/C)C(=O)NC2=CC(=O)C(NCc3cccc([N+](=O)[O-])c3)=C(C[C@@H](C)C[C@H](OC)[C@H](O)[C@@H](C)/C=C(\C)[C@@H]1OC(N)=O)C2=O	6.47	6.16					
CO[C@H]1/C=C\C=C(/C)C(=O)NC2=CC(=O)C(NCc3ccc(C#N)cc3)=C(C[C@@H](C)C[C@H](OC)[C@H](O)[C@@H](C)/C=C(\C)[C@@H]1OC(N)=O)C2=O	6.32	6.60					
COc1ccc(CNC2=C3C[C@@H](C)C[C@H](OC)[C@H](O)[C@@H](C)/C=C(\C)[C@H](OC(N)=O)[C@@H](OC)/C=C\C=C(/C)C(=O)NC(=CC2=O)C3=O)cc1	5.11	6.74					
CO[C@H]1/C=C\C=C(/C)C(=O)NC2=CC(=O)C(NCc3cccc(C)c3)=C(C[C@@H](C)C[C@H](OC)[C@H](O)[C@@H](C)/C=C(\C)[C@@H]1OC(N)=O)C2=O	5.28	6.10					
CO[C@H]1/C=C\C=C(/C)C(=O)NC2=CC(=O)C(NCc3ccccc3Cl)=C(C[C@@H](C)C[C@H](OC)[C@H](O)[C@@H](C)/C=C(\C)[C@@H]1OC(N)=O)C2=O	6.39	6.19					
COC1=C2C[C@@H](C)C[C@H](OC)[C@H](O)[C@@H](C)/C=C(\C)[C@H](OC(N)=O)[C@@H](OC)/C=C\C=C(/C)C(=O)NC(=CC1=O)C2=O [GELDANAMYCIN]			317.2 U/L			273 U/L	
CO[C@H]1/C=C\C=C(/C)C(=O)NC2=CC(=O)C(NCc3ccc(OC(F)(F)F)cc3)=C(C[C@@H](C)C[C@H](OC)[C@H](O)[C@@H](C)/C=C(\C)[C@@H]1OC(N)=O)C2=O	6.24	6.74					
CO[C@H]1/C=C\C=C(/C)C(=O)NC2=CC(=O)C(NCc3ccc(S(C)(=O)=O)cc3)=C(C[C@@H](C)C[C@H](OC)[C@H](O)[C@@H](C)/C=C(\C)[C@@H]1OC(N)=O)C2=O	6.07	6.46					
CO[C@H]1/C=C\C=C(/C)C(=O)NC2=CC(=O)C(NCc3ccc(Br)cc3)=C(C[C@@H](C)C[C@H](OC)[C@H](O)[C@@H](C)/C=C(\C)[C@@H]1OC(N)=O)C2=O	< 5.00	6.62					
CCOC(=O)c1ccc(CNC2=C3C[C@@H](C)C[C@H](OC)[C@H](O)[C@@H](C)/C=C(\C)[C@H](OC(N)=O)[C@@H](OC)/C=C\C=C(/C)C(=O)NC(=CC2=O)C3=O)cc1	5.87	6.89					
COC(=O)c1ccc(CNC2=C3C[C@@H](C)C[C@H](OC)[C@H](O)[C@@H](C)/C=C(\C)[C@H](OC(N)=O)[C@@H](OC)/C=C\C=C(/C)C(=O)NC(=CC2=O)C3=O)cc1	5.99	6.89					
